Tests used:
[1] = system: rgRSV224 virus; assay: Antiviral activity: rgRSV224 (GFP) replication in HeLa cells; format: cell-based, respiratory syncytial virus (RSV); conditions: human respiratory syncytial virus, HeLa, 72 h, read-out: RSV HELA EC50, HeLa cells, rgRSV224 MOI = 1, GFP expression three days post-virus exposure; averaged data of several repeat experiments
Experimental: (§1) Black 384-well clear-bottom microtiter plates (Corning, Amsterdam, The Netherlands) were filled via acoustic drop ejection using the echo liquid handler (Labcyte, Sunnyvale, California). 200 nL of compound stock solutions (100% DMSO) were transferred to the assay plates. 9 serial 4-fold dilutions of compound were made, creating per quadrant the same compound concentration. The assay was initiated by adding 10 µL of culture medium to each well (RPMI medium without phenol red, 10% FBS-heat inactivated, 0.04% gentamycin (50 mg/mL). All addition steps are done by using a multidrop dispenser (Thermo Scientific, Erembodegem, Belgium). Next, rgRSV224 virus (MOI = 1) diluted in culture medium was added to the plates. rgRSV224 virus is an engineered virus that includes an additional GFP gene (Hallak LK, Spillmann D, Collins PL, Peeples ME. Glycosaminoglycan sulfation requirements for respiratory syncytial virus infection; Journal of virology (2000), 74(22), 10508-13) and was in-licensed from the NIH (Bethesda, MD, USA). Finally, 20 µL of a HeLa cell suspension (3,000 cells/well) were plated. Medium, virus- and mock-infected controls were included in each test. The wells contain […] DMSO per volume. Cells were incubated at 37° C. in a 5% CO2 atmosphere. Three days post-virus exposure, viral replication was quantified by measuring GFP expression in the cells by an in house developed MSM laser microscope (Tibotec, Beerse, Belgium). The EC50 was defined as the 50% inhibitory concentration for GFP expression. In parallel, compounds were incubated for three days in a set of white 384-well microtiter plates (Corning) and the cytotoxicity of compounds in HeLa cells was determined by measuring the ATP content of the cells using the ATPlite kit (Perkin Elmer, Zaventem, Belgium) according to the manufacturer’s instructions. The CC50 was defined as the 50% concentration for cytotoxicity.

[2] = Cytotoxicity in HeLa cells (ATP content, ATPlite kit); format: cell-based; conditions: human, TOX HELA CC50
Experimental: as §1

SMILES	EC50 [1] [µM]	CC50 at 3 days [2] [µM]
COc1cc(C(=O)NC[C@](O)(c2cc(C(C)(C)O)c(Cl)c(-c3ccc(F)cc3)n2)C(F)(F)F)cc2cc(C)cnc12 [compound 200, (-)-N-{2-[5-Chloro-6-(4-Fluorophenyl)-4-(2-Hydroxypropan-2-yl)Pyridin-2-yl]-3,3,3-Trifluoro-2-Hydroxypropyl}-8-Methoxy-3-Methylquinoline-6-Carboxamide]	0.0017	22
COc1cc(C(=O)NC[C@](O)(c2nc(-c3ccc(F)cc3)c(F)c(C(C)(C)O)c2F)C(F)(F)F)cc2cc(C)cnc12 [compound 201, (-)-N-{2-[3,5-difluoro-6-(4-fluorophenyl)-4-(2-hydroxypropan-2-yl)pyridin-2-yl)-3,3,3-trifluoro-2-hydroxypropyl}-8-methoxy-3-methylquinoline-6-carboxamide]	0.0026	43
COc1cc(C(=O)NC[C@](O)(c2nc(-c3ccc(F)cc3)c(Cl)c(C(C)(C)O)c2F)C(F)(F)F)cc2cc(C)cnc12 [compound 202]	0.0048	46
COc1cc(C(=O)NC[C@](O)(c2cc(C(C)(C)O)c(Cl)c(-c3ccc(F)cc3)n2)C2CC2)cc2cc(C)cnc12 [compound 205, (-)-N-{2-[5-Chloro-6-(4-Fluorophenyl)-4-(2-Hydroxypropan-2-yl)Pyridin-2-yl]-2-Cyclopropyl-2-Hydroxyethyl}-8-Methoxy-3-Methylquinoline-6-Carboxamide]	0.00081	32
COc1cc(C(=O)NC[C@](O)(c2cc(C(C)(C)O)c(F)c(-c3ccc(F)cc3)n2)C2CC2)cc2cc(C)cnc12 [compound 206]	0.00046	15
COc1cc(C(=O)NC[C@](O)(c2cc(C(C)(C)O)c(F)c(-c3ccc(C(F)(F)F)cc3)n2)C2CC2)cc2cc(C)cnc12 [compound 207]	0.00077	13
COc1cc(C(=O)NC[C@](O)(c2cc(C(C)(C)O)c(F)c(-c3ccc(Cl)cc3)n2)C2CC2)cc2cc(C)cnc12 [compound 208, (-)-N-{2-[6-(4-chlorophenyl)-5-fluoro-4-(2-hydroxypropan-2-yl)pyridin-2-yl]-2-cyclopropyl-2-hydroxyethyl}-8-methoxy-3-methylquinoline-6-carboxamide]	0.001	14
COc1cc(C(=O)NC[C@](O)(c2cc(C(C)(C)O)c(F)c(-c3ccc(F)c(F)c3)n2)C2CC2)cc2cc(C)cnc12 [compound 209, (-)-N-{2-Cyclopropyl-2-[6-(3,4-Difluorophenyl)-5-Fluoro-4-(2-Hydroxypropan-2-yl)Pyridin-2-yl]-2-Hydroxyethyl}-8-Methoxy-3-Methylquinoline-6-Carboxamide]	0.00041	25
COc1cc(C(=O)NC[C@](O)(c2cc(C(C)(C)O)c(Cl)c(-c3ccc(F)cc3)n2)C(F)(F)F)cc2cc(C)c(F)nc12 [compound 210, (-)-N-{2-[5-Chloro-6-(4-Fluorophenyl)-4-(2-Hydroxypropan-2-yl)Pyridin-2-yl]-3,3,3-Trifluoro-2-Hydroxypropyl}-2-Fluoro-8-Methoxy-3-Methylquinoline-6-Carboxamide]	0.0029	23
COc1cc(C(=O)NC[C@](O)(c2nc(-c3ccc(F)cc3)c(F)c(C(C)(C)O)c2F)C(F)(F)F)cc2cc(C)c(F)nc12 [compound 211, (-)-N-{2-[3,5-Difluoro-6-(4-Fluorophenyl)-4-(2-Hydroxypropan-2-yl)Pyridin-2-yl]-3,3,3-Trifluoro-2-Hydroxypropyl}-2-Fluoro-8-Methoxy-3-Methylquinoline-6-Carboxamide]	0.0028	29
COc1cc(C(=O)NC[C@](O)(c2nc(-c3ccc(F)cc3)c(Cl)c(C(C)(C)O)c2F)C(F)(F)F)cc2cc(C)c(F)nc12 [compound 212, (-)-N-{2-[5-Chloro-3-Fluoro-6-(4-Fluorophenyl)-4-(2-Hydroxypropan-2-yl)Pyridin-2-yl]-3,3,3-Trifluoro-2-Hydroxypropyl}-2-Fluoro-8-Methoxy-3-Methylquinoline-6-Carboxamide]	0.0071	58
COc1cc(C(=O)NC[C@](O)(c2cc(C(C)(C)O)c(Cl)c(-c3ccc(F)cc3)n2)C2CC2)cc2cc(C)c(F)nc12 [compound 215]	0.00087	20
COc1cc(C(=O)NC[C@](O)(c2cc(C(C)(C)O)c(F)c(-c3ccc(F)cc3)n2)C2CC2)cc2cc(C)c(F)nc12 [compound 216, (-)-N-{2-Cyclopropyl-2-[5-Fluoro-6-(4-Fluorophenyl)-4-(2-Hydroxypropan-2-yl)Pyridin-2-yl]-2-Hydroxyethyl}-2-Fluoro-8-Methoxy-3-Methylquinoline-6-Carboxamide]	0.00062	21
COc1cc(C(=O)NC[C@](O)(c2cc(C(C)(C)O)c(F)c(-c3ccc(C(F)(F)F)cc3)n2)C2CC2)cc2cc(C)c(F)nc12 [compound 217, N-[(-)Cyclopropyl{5-Fluoro-4-(2-Hydroxypropanyl)-6-[4-(Trifluoromethyl)Phenyl]-Pyridinyl}Hydroxyethyl]Fluoro-8-Methoxy-3-Methylquinoline-6-Carboxamide]	0.0013	14
COc1cc(C(=O)NC[C@](O)(c2cc(C(C)(C)O)c(F)c(-c3ccc(F)c(F)c3)n2)C2CC2)cc2cc(C)c(F)nc12 [compound 218, (-)-N-{2-Cyclopropyl-2-[6-(3,4-Difluorophenyl)-5-Fluoro-4-(2-Hydroxypropan-2-yl)Pyridin-2-yl]-2-Hydroxyethyl}-2-Fluoro-8-Methoxy-3-Methylquinoline-6-Carboxamide]	0.0012	16
Cc1cnc2c(OC3CC3)cc(C(=O)NC[C@](O)(c3cc(C(C)(C)O)c(Cl)c(-c4ccc(F)cc4)n3)C(F)(F)F)cc2c1 [compound 219, (-)-N-{2-[5-Chloro-6-(4-Fluorophenyl)-4-(2-Hydroxypropan-2-yl)Pyridin-2-yl]-3,3,3-Trifluoro-2-Hydroxypropyl}-8-(Cyclopropyloxy)-3-Methylquinoline-6-Carboxamide]	0.005	27
Cc1cnc2c(OC3CC3)cc(C(=O)NC[C@](O)(c3nc(-c4ccc(F)cc4)c(F)c(C(C)(C)O)c3F)C(F)(F)F)cc2c1 [compound 220, (-)(Cyclopropyloxy)-N-{2-[3,5-Difluoro-6-(4-Fluorophenyl)-4-(2-Hydroxypropan-2-yl)Pyridin-2-yl]-3,3,3-Trifluoro-2-Hydroxypropyl}-3-Methylquinoline-6-Carboxamide]	0.0024	36
Cc1cnc2c(OC3CC3)cc(C(=O)NC[C@](O)(c3nc(-c4ccc(F)cc4)c(Cl)c(C(C)(C)O)c3F)C(F)(F)F)cc2c1 [compound 221, (-)-N-{2-[5-Chloro-3-Fluoro-6-(4-Fluorophenyl)-4-(2-Hydroxypropan-2-yl)Pyridin-2-yl]-3,3,3-Trifluoro-2-Hydroxypropyl}-8-(Cyclopropyloxy)-3-Methylquinoline-6-Carboxamide]	0.0093	65
Cc1cnc2c(OC3CC3)cc(C(=O)NC[C@](O)(c3cc(C(C)(C)O)c(Cl)c(-c4ccc(F)cc4)n3)C3CC3)cc2c1 [compound 222, (-)-A-{2-[5-Chloro-6-(4-Fluorophenyl)-4-(2-Hydroxypropan-2-yl)Pyridin-2-yl]-2-Cyclopropyl-2-Hydroxyethyl}-8-(Cyclopropyloxy)-3-Methylquinoline-6-Carboxamide]	0.0015	27
Cc1cnc2c(OC3CC3)cc(C(=O)NC[C@](O)(c3cc(C(C)(C)O)c(F)c(-c4ccc(F)cc4)n3)C3CC3)cc2c1 [compound 223, (-)-N-{2-Cyclopropyl-2-[5-Fluoro-6-(4-Fluorophenyl)-4-(2-Hydroxypropan-2-yl)Pyridin-2-yl]-2-Hydroxyethyl}-8-(Cyclopropyloxy)-3-Methylquinoline-6-Carboxamide]	0.00063	21
Cc1cnc2c(OC3CC3)cc(C(=O)NC[C@](O)(c3cc(C(C)(C)O)c(F)c(-c4ccc(C(F)(F)F)cc4)n3)C3CC3)cc2c1 [compound 224]	0.0017	15
Cc1cnc2c(OC3CC3)cc(C(=O)NC[C@](O)(c3cc(C(C)(C)O)c(F)c(-c4ccc(F)c(F)c4)n3)C3CC3)cc2c1 [compound 225, (-)-N-{2-Cyclopropyl-2-[6-(3,4-Difluorophenyl)-5-Fluoro-4-(2-Hydroxypropan-2-yl)Pyridin-2-yl]-2-Hydroxyethyl}-8-(Cyclopropyloxy)-3-Methylquinoline-6-Carboxamide]	0.00059	15

From patent US20230203004A1, “RSV INHIBITING 3-SUBSTITUTED QUINOLINE AND CINNOLINE DERIVATIVES” (Janssen Sciences Ireland Unlimited Company, priority 2020, published 2023)
